Reference: US9487504B2, “Imidazolyl analogs as syk inhibitors” (Merck Sharp & Dohme Corp., priority 2012, dated 2016)

These compounds were tested against T1, recombinant human GST-Syk (Homo sapiens, UniProt P43405) (assay: Homogeneous Time-Resolved Fluorescence (HTRF) assay for the recombinant human Syk enzyme). Conditions: ATP 25 μM, 10-dose titration, read-out: rhSYK Activity.
T1 construct: purchased Carna Biosciences 08-176
Format: biochemical
Method: Syk inhibition may be determined using the following assay protocol:
Homogeneous Time-Resolved Fluorescence (HTRF) Assay for the Recombinant Human Syk Enzyme:
A recombinant GST-hSyk fusion protein was used to measure potency of compounds to inhibit human Syk activity. The recombinant human GST-Syk (Carna Biosciences #08-176) ([…]) was incubated with various concentrations of the inhibitor diluted in DMSO (0.1% final concentration) for 10 minutes at room temperature in 15 mM Tris-HCl (pH 7.5), 0.01% tween 20, 2 mM DTT in 384 well plate format. To initiate the reaction the biotinylated substrate peptide (250 nM final concentration) that contains the phosphorylation site for Syk was added with magnesium (5 mM final concentration) and ATP (25 μM final concentration). Final volume of the reaction was 10 μL. Phosphorylation of the peptide was allowed to proceed for 45 minutes at room temperature. To quench the reaction and detect the phosphorylated product, 2 nM of a Europium-anti-phosphotyrosine antibody (Perkin Elmer #AD0161) and 70 nM SA-APC (Perkin-Elmer #CR130-100) were added together in 15 mM Tris pH 7.5, 40 mM EDTA, 0.01% tween 20. Final volume of the quenching solution was 10 μL. The resulting HTRF signal was measured after 30 minutes on an EnVision (Perkin-Elmer) reader using a time-resolved fluorescence protocol. IC50 was determined following 10-dose titration (10 μM to 0.508 nM) and four parameter logistic curve fitting using the Merck Assay Data Analyzer. The rhSyk activity (IC50) is expressed as +++ (100 nM or less), ++ (between 100 and 1000 nM), + (between 1 and 10 μM).

Row | SMILES | IC50 [µM]
1 | Cc1cc(Nc2nccc(C(F)(F)F)n2)cc(-n2cnc(C(=O)NC(C)C)c2)c1 [Example 89, N-(1-methylethyl)-1-(3-methyl-5-{[4-(trifluoromethyl)pyrimidin-2-yl]amino}-phenyl)-1H-imidazole-4-carboxamide] | 0.1 to 1
2 | CC(C)(O)c1cn(-c2cc(C(F)(F)F)cc(Nc3cc(C(F)(F)F)ccn3)n2)cn1 [Example 91, 2-{1-[4-(trifluoro-methyl)-6-{[4-(trifluoromethyl)-pyridin-2-yl]amino}-pyridin-2-yl]-1H-imidazol-4-yl}propan-2-ol] | 0.1 to 1
3 | COC(=O)c1cn(-c2cc(Nc3nccc(C(F)(F)F)n3)cc(N3CCOCC3)c2)cn1 [Example 108, Methyl 1-(3-morpholin-4-yl-5-{[4-(trifluoromethyl)-pyrimidin-2-yl]amino}-phenyl)-1H-imidazole-4-carboxylate] | 0.1 to 1
4 | Cc1cc(Nc2nccc(C(F)(F)F)n2)cc(-n2cnc(C(C)(C)C#N)c2)c1 [Example 110, 2-Methyl-2-[1-(3-methyl-5-{[4-(trifluoromethyl)pyrimidin-2-yl]amino}phenyl)-1H-imidazol-4-yl]propanenitrile] | 0.1 to 1
5 | Cc1ccnc(Nc2cc(C)cc(-n3cnc([C@]4(O)CC[C@@H](O)CC4)c3)n2)c1 [Example 46, cis-1-(1-{4-methyl-6-[(4-methylpyridin-2-yl)amino]pyridin-2-yl}-1H-imidazol-4-yl)cyclohexane-1,4-diol] | ≤ 0.1
6 | CCOC(=O)C1(C)CC=C(c2cn(-c3cc(C)cc(Nc4nccc(C(F)(F)F)n4)c3)cn2)CC1 (racemic) [Example 19, Ethyl 1-methyl-4-[1-(3-methyl-5-{[4-(trifluoromethyl)-pyrimidin-2-yl]amino}-phenyl)-1H-imidazol-4-yl]cyclohex-3-ene-1-carboxylate] | 0.1 to 1
7 | Cc1cc(Nc2nccc(C(F)(F)F)n2)cc(-n2cnc(C3(O)CCC(C(=O)O)CC3)c2)c1 (stereo not drawn) [Example 35, trans-4-hydroxy-4-[1-(3-methyl-5-[[4-(trifluoromethyl)pyrimidin-2-yl]amino}phenyl)-1H-imidazol-4-yl]cyclohexanecarboxylic acid] | ≤ 0.1
8 | Cc1cc(Nc2nccc(C(F)(F)F)n2)cc(-n2cnc(C(=O)O)c2)c1 [Example 78, 1-(3-methyl-5-{[4-(trifluoromethyl)-pyrimidin-2-yl]amino}-phenyl)-1H-imidazole-4-carboxylic acid] | ≤ 0.1
9 | Cc1cc(Nc2cc(C)c(Cl)cn2)nc(-n2cnc([C@]3(O)CC[C@@H](O)CC3)c2)c1 [Example 44, cis-1-(1-{6-[(5-chloro-4-methylpyridin-2-yl)amino]-4-methylpyridin-2-yl}-1H-imidazol-4-yl)cyclohexane-1,4-diol] | ≤ 0.1
10 | Cc1cc(Nc2nccc(C(F)(F)F)n2)cc(-n2cnc([C@H]3CC[C@@H](C(=O)O)CC3)c2)c1 [2 (cis), Cis-4-[1-(3-methyl-5-{[4-(trifluoromethyl)pyrimidin-2-yl]amino}phenyl)-1H-imidazol-4-yl]cyclohexanecarboxylic acid] | ≤ 0.1
11 | CC(C)(O)CCc1cn(-c2cc(Nc3nccc(C(F)(F)F)n3)cc(N3CCOCC3)c2)cn1 [Example 105, 2-methyl-4-[1-(3-morpholin-4-yl-5-{[4-(trifluoromethyl)pyrimidin-2-yl]amino}-phenyl)-1H-imidazol-4-yl]butan-2-ol] | ≤ 0.1
12 | CCOC(=O)C(C)(C)C1CCC(O)(c2cn(-c3cc(C)cc(Nc4cc(C(F)(F)F)ccn4)n3)cn2)CC1 (stereo not drawn) [Example 24, Ethyl 2-{trans-4-hydroxy-4-[1-(4-methyl-6-{[4-(trifluoromethyl)-pyridin-2-yl]amino}-pyridin-2-yl)-1H-imidazol-4-yl]-cyclohexyl}-2-methylpropanoate] | 0.1 to 1
13 | Cc1cc(Nc2cc(C3CC3)ccn2)nc(-n2cnc([C@]3(O)CC[C@@H](OC(=O)c4ccccc4)CC3)c2)c1 [Example 50, cis-4-(1-{6-[(4-cyclopropylpyridin-2-yl)amino]-4-methylpyridin-2-yl}-1H-imidazol-4-yl)-4-hydroxycyclohexyl benzoate] | ≤ 0.1
14 | Cc1cc(Nc2nccc(C(F)(F)F)n2)cc(-n2cnc(C3=CCC(C(=O)O)C(C)(C)C3)c2)c1 (stereo not shown) [Example 4, 6,6-Dimethyl-4-[1-(3-methyl-5-{[4-(trifluoromethyl)pyrimidin-2-yl]amino}phenyl)-1H-imidazol-4-yl]cyclohex-3-ene-1-carboxylic acid] | ≤ 0.1
15 | Cc1cc(Nc2nccc(C(F)(F)F)n2)cc(-n2cc(C(C)(C)O)nc2C)c1 [Example 68, 2-[2-Methyl-1-(3-methyl-5-{[4-(trifluoromethyl)pyrimidin-2-yl]amino}phenyl)-1H-imidazol-4-yl]propan-2-ol] | 0.1 to 1
16 | Cc1cc(Nc2cc(C)c(Cl)cn2)nc(-n2cnc([C@]3(O)CC[C@@H](OC(=O)c4ccccc4)CC3)c2)c1 [Example 49, cis-4-(1-{6-[(5-chloro-4-methylpyridin-2-yl)amino]-4-methylpyridin-2-yl}-1H-imidazol-4-yl)-4-hydroxycyclohexyl benzoate] | 0.1 to 1

The remaining lines, values ahead:

Row | IC50 [µM] | SMILES
17 | ≤ 0.1 | Cc1cc(Nc2cc(Cl)ccn2)nc(-n2cnc(C(C)(C)O)c2)c1 [Example 95, 2-(1-{6-[(4-chloropyridin-2-yl)amino]-4-methylpyridin-2-yl}-1H-imidazol-4-yl)propan-2-ol]
18 | ≤ 0.1 | Cc1cc(Nc2cc(C)c(F)cn2)nc(-n2cnc([C@]3(O)CC[C@@H](OC(=O)c4ccccc4)CC3)c2)c1 [Example 48, cis-4-(1-{6-[(5-fluoro-4-methylpyridin-2-yl)amino]-4-methylpyridin-2-yl}-1H-imidazol-4-yl)-4-hydroxycyclohexyl benzoate]
19 | ≤ 0.1 | Cc1cc(Nc2nccc(C(F)(F)F)n2)cc(-n2cnc([C@]3(O)CC[C@@H](O)[C@@H](C)C3)c2)c1 [Example 56, (1S,3S,4R)-3-methyl-1-[1-(3-methyl-5-{[4-(trifluoromethyl)pyrimidin-2-yl]amino}phenyl)-1H-imidazol-4-yl]cyclohexane-1,4-diol]
20 | ≤ 0.1 | COC(=O)c1cn(-c2cc(C)cc(Nc3cc(Cl)ccn3)n2)cn1 [Example 97, Methyl 1-{6-[(4-chloropyridin-2-yl)amino]-4-methylpyridin-2-yl}-1H-imidazole-4-carboxylate]
21 | ≤ 0.1 | Cc1cc(Nc2nccc(C(F)(F)F)n2)cc(-n2cnc([C@]3(O)CC[C@@H](C(=O)N4CCOCC4)CC3)c2)c1 [Example 30, cis-1-[1-(3-methyl-5-{[4-(trifluoromethyl)pyrimidin-2-yl]amino}phenyl)-1H-imidazol-4-yl]-4-(morpholin-4-ylcarbonyl)cyclohexanol]
22 | ≤ 0.1 | Cc1cc(Nc2cc(C3CC3)ccn2)nc(-n2cnc(CCC(=O)O)c2)c1 [Example 115, 3-(1-(6-((4-cyclopropylpyridin-2-yl)amino)-4-methylpyridin-2-yl)-1H-imidazol-4-yl)propanoic acid]
23 | ≤ 0.1 | COC(=O)c1cn(-c2cc(N)cc(Nc3cc(C(F)(F)F)ccn3)n2)cn1 [Example 85, Methyl 1-(4-amino-6-{[4-(trifluoromethyl)-pyridin-2-yl]amino}-pyridin-2-yl)-1H-imidazole-4-carboxylate]
24 | ≤ 0.1 | Cc1cc(Nc2nccc(C)n2)cc(-n2cnc([C@]3(O)CC[C@@H](O)CC3)c2)c1 [Example 38, Cis-1-(1-{3-methyl-5-[(4-methylpyrimidin-2-yl)amino]phenyl}-1H-imidazol-4-yl)cyclohexane-1,4-diol]
25 | ≤ 0.1 | CCOC(=O)C1(C)CCC(O)(c2cn(-c3cc(C)cc(Nc4nccc(C(F)(F)F)n4)c3)cn2)CC1 (stereo not drawn) [Example 22, Ethyl trans-4-hydroxy-1-methyl-4-[1-(3-methyl-5-{[4-(trifluoromethyl)pyrimidin-2-yl]amino}phenyl)-1H-imidazol-4-yl]cyclohexanecarboxylate]
26 | ≤ 0.1 | Cc1cc(Nc2cc(C(F)(F)F)ccn2)nc(-n2cnc([C@]3(O)CC[C@H](O)CC3)c2)c1 [Example 61, trans-1-[1-(4-methyl-6-{[4-(trifluoromethyl)pyridin-2-yl]amino}pyridin-2-yl)-1H-imidazol-4-yl]cyclohexane-1,4-diol]
27 | ≤ 0.1 | Cc1cc(Nc2cc(C(F)(F)F)ccn2)nc(-n2cnc(C(C)(C)O)c2)c1 [Example 92, 2-[1-(4-methyl-6-{[4-(trifluoromethyl)pyridin-2-yl]amino}pyridin-2-yl)-1H-imidazol-4-yl]propan-2-ol]
28 | ≤ 0.1 | Cc1cc(Nc2nccc(C(F)(F)F)n2)cc(-n2cnc(C3=CCC(C(=O)O)CC3)c2)c1 (stereo not shown) [Example 3, 4-[1-(3-methyl-5-{[4-(trifluoromethyl)pyrimidin-2-yl]amino}phenyl)-1H-imidazol-4-yl]cyclohex-3-ene-1-carboxylic acid]
29 | ≤ 0.1 | Cc1cc(Nc2nccc(C(F)(F)F)n2)cc(-n2cnc(C(C)(C)C(=O)O)c2)c1 [Example 111, 2-Methyl-2-[1-(3-methyl-5-{[4-(trifluoromethyl)pyrimidin-2-yl]amino}phenyl)-1H-imidazol-4-yl]propanoic acid]

Same assay, conditions: ATP 25 μM, 10-dose titration, read-out: rhSYK IC50

Row | IC50 [µM] | SMILES
30 | 0.0125 | Cc1cc(Nc2nccc(C(F)(F)F)n2)cc(-n2cnc([C@H]3CC[C@@H](C(=O)O)CC3)c2)c1 [2 (cis), Cis-4-[1-(3-methyl-5-{[4-(trifluoromethyl)pyrimidin-2-yl]amino}phenyl)-1H-imidazol-4-yl]cyclohexanecarboxylic acid]
31 | 0.0009 | Cc1cc(Nc2nccc(C(F)(F)F)n2)cc(-n2cnc(C3=CCC(C(=O)O)C(C)(C)C3)c2)c1 (stereo not shown) [Example 4, 6,6-Dimethyl-4-[1-(3-methyl-5-{[4-(trifluoromethyl)pyrimidin-2-yl]amino}phenyl)-1H-imidazol-4-yl]cyclohex-3-ene-1-carboxylic acid]
